Activity calls are given as the source filed them.
Assays:
[1] = inhibitors of PGC1a acetylation in cells, dose response, cell-based, cherry-picked samples (AID 720514); type: functional;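 also: potency may reflect raised or lowered acetylation signal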
[2] = THP-1 cell cytotoxicity, dose response, cytotoxicity control for Vif-APOBEC3G degradation inhibitor project, THP-1 cells (AID 1117359); type: functional; details: Human immunodeficiency virus 1, THP-1
[3] = HEp-2 cell cytotoxicity, dose response, cytotoxicity control for RSV inhibitor project, HTS (AID 2410); type: functional; details: human respiratory syncytial virus
[4] = target: T1, Endoribonuclease toxin MazF (Escherichia coli K-12, UniProt P0AE70); experiment: MazF toxin RNase activators, dose response, biochemical, fluorescence, single-stranded RNA substrate, uHTS hits (AID 588481); type: functional
T1 sequence (P0AE70 whole entry): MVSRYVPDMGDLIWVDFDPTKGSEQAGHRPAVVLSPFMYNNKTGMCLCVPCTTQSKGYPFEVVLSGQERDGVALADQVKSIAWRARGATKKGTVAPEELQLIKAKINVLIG

[5] = target: T1, Endoribonuclease toxin MazF; experiment: fluorescent RNA oligo signal without MazF, dose response, counter-screen for MazEF activator project, biochemical, fluorescence, single-stranded RNase substrate (AID 588502); type: functional
[6] = inhibitors of HIV Env-driven cell fusion, dose response, cherry-pick (AID 652057); type: functional, cell-based
[7] = ZM109 Env clade C HIV-1 fusion inhibitors, dose response, HeLa effector, CEM target cells, luciferase, cherry-pick (AID 652058); type: functional, cell-based
[8] = off-target signal loss in HeLa-CEM21 co-culture – HeLa F-luc CTL cells, cherry-picked, counter-screen for HIV-1 Env fusion inhibitor project, dose response (AID 652040); type: functional, cell-based;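 also: potency for signal decrease marking cytotoxic or nonspecific inhibition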
[9] = inhibitors of clade B AD8 Env fusion, dose response, cell-based, cherry-pick (AID 652062); type: functional;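 also: luciferase signal from cell-cell fusion driven by HIV-1 clade B AD8 Env; potency is for inhibitors of fusion seen as a drop in luminescence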
[10] = target: T2, RNA-binding protein pos-1 (Caenorhabditis elegans, UniProt G5EF15); experiment: inhibitors of POS-1/mex-3 RNA binding, dose response, biochemical, fluorescence polarization (AID 1964);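 also: purified POS-1 fused to maltose binding protein made in E. coli; potency of compounds blocking POS-1 binding to fluorescent RNA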
T2 sequence (G5EF15 whole entry): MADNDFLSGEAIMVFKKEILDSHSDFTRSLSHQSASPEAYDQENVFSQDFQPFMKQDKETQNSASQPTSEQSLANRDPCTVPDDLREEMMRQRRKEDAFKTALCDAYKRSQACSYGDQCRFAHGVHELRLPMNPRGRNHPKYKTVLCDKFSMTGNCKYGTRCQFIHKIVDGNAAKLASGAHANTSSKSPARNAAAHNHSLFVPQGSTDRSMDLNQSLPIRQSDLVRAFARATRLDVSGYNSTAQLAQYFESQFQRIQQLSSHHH

[11] = target: T3, Zinc finger protein mex-5 (Caenorhabditis elegans, UniProt Q9XUB2); experiment: MEX-5/TCR-2 RNA interaction inhibitors, dose response, biochemical, C. elegans, fluorescence polarization (AID 1960)
T3 sequence (Q9XUB2 whole entry): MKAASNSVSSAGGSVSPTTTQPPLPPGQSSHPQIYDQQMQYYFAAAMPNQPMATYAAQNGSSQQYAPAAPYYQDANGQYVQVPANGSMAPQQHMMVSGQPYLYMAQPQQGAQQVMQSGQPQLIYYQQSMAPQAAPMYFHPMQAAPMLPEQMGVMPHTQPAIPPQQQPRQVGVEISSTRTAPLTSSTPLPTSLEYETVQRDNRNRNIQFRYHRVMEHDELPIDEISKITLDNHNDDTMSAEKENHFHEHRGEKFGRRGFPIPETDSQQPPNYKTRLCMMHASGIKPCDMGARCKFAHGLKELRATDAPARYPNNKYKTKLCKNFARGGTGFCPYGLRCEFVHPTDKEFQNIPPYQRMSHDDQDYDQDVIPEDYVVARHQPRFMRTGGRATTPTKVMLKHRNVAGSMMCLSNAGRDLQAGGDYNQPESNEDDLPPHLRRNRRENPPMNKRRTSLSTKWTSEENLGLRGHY

[12] = target: T4, DNA repair and recombination protein RAD54-like (Homo sapiens, UniProt Q92698); experiment: inhibitors of human RAD54 branch migration, confirmation, biochemical, fluorescence, cherry-picked samples, dose series (AID 651657); type: functional
T4 sequence (Q92698 whole entry): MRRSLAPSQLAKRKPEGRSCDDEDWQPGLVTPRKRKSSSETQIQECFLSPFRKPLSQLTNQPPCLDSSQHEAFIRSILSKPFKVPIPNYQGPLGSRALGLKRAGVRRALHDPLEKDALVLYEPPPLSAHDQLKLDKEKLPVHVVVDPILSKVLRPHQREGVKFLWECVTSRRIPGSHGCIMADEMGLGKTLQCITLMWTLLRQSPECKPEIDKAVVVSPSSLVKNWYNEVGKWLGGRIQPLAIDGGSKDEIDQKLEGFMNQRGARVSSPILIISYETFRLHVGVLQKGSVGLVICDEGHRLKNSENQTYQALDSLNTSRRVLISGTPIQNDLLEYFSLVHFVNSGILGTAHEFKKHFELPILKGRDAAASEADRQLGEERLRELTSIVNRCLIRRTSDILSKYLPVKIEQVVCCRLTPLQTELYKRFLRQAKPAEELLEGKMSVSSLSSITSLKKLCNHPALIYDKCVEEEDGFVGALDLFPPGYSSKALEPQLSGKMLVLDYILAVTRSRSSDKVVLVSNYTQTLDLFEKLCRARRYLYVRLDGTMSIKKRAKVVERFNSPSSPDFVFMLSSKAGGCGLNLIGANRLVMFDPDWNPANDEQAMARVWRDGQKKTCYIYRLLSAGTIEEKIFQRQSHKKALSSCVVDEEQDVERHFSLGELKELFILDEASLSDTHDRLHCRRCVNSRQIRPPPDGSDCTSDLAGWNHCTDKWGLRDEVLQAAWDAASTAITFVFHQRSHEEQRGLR

[13] = target: T5, DNA repair protein RAD52 homolog (Homo sapiens, UniProt P43351); type: functional, biochemical
T5 sequence (P43351 whole entry): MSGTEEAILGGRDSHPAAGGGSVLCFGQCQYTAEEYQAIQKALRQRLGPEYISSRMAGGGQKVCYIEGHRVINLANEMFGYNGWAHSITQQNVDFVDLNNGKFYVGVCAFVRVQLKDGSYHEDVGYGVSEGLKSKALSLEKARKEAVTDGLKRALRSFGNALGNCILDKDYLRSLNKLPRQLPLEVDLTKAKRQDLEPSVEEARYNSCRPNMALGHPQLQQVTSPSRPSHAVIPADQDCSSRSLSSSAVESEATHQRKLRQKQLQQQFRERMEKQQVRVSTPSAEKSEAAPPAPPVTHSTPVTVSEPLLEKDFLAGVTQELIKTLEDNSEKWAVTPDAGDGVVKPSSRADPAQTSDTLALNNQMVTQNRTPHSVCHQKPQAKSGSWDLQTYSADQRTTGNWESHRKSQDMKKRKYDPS

Paired box protein Pax-8 = Paired box protein Pax-8 (Homo sapiens, UniProt Q06710); experiment: inhibitors of PAX8-driven TPO luciferase reporter, dose response, RMG-I cells, cherry-pick (AID 687027); type: functional, cell-based;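 also: luciferase reporter driven by Pax8 target thyroperoxidase promoter measured by SteadyGlo luminescence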
Sequence of Paired box protein Pax-8 (Q06710 whole entry): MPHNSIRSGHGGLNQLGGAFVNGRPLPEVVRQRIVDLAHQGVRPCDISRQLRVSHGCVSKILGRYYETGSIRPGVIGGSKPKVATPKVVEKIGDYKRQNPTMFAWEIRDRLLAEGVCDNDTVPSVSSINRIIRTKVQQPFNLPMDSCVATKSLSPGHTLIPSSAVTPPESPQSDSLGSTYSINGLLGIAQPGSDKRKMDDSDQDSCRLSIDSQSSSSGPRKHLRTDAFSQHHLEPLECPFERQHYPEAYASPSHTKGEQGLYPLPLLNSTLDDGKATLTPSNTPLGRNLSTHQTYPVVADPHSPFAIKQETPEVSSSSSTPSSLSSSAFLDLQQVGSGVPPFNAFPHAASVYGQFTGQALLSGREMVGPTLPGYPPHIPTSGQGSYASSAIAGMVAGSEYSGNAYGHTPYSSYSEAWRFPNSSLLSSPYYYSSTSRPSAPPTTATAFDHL

[14] = A549 cell cytotoxicity, dose response, cytotoxicity control, plate reader, cherry-pick, antagonist series (AID 743412); type: functional, cell-based
[15] = HepG2 cell cytotoxicity, dose response, cytotoxicity control, plate reader, cherry-pick, antagonist series (AID 743416); type: functional, cell-based
[16] = LGR2 antagonists, dose response, cell-based, HEK293, CRE-luciferase reporter, cherry pick, set 2 (AID 743343); type: functional;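 also: transfected cells were stimulated with diluted bursicon conditioned medium after compound addition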
[17] = non-specific cell cytotoxicity, dose response, cytotoxicity control for PAX8 inhibitor project, plate reader, dry powder samples (AID 743021); type: functional, cell-based
[18] = MC4R antagonists, dose response, counter-screen for LGR2 antagonist project, cell-based, plate reader, cherry pick (AID 743444); type: functional;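 also: transfected HEK 293 cells stimulated with alpha-MSH peptide; potency of inhibitors of the alpha-MSH evoked signal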
[19] = HEK293 cell cytotoxicity, dose response, cytotoxicity control, plate reader, cherry-picked samples (AID 743446); type: functional, cell-based

**Q.** With CC[C@H](C)[C@H](NC(=O)c1ccc(Cl)cc1)C(=O)OCC(=O)c1ccc2c(c1)NC(=O)CO2 as the compound, how does the AC50 [1] read?
**A.** Its AC50 is 6.76 µM (active).

**Q.** With COc1ccc(CCNCc2ccc(OCc3ccccc3)cc2)cc1 as the compound, how does the CC50 [2] read?
**A.** The CC50 was 21.9 µM (active).

**Q.** With O=c1oc(/C=C/c2ccccc2)nc2sc3c(c12)CCC3 as the compound, how does the CC50 [3] read?
**A.** Its CC50 is 28.4 µM (active).

**Q.** And the EC50 [4]?
**A.** Its EC50 is > 99 µM (inactive).

**Q.** What about the EC50 [5] of the same compound?
**A.** The EC50 was > 99 µM (inactive).

**Q.** What about the IC50 (cells) of the same compound?
**A.** Its IC50 is 39.6 µM (active).

**Q.** With O=C(NCc1ccco1)c1ccc(Cn2c(=O)c3sccc3n(Cc3cccc(F)c3)c2=O)cc1 as the compound, how does the CC50 [3] read?
**A.** The CC50 was > 12.5 µM (active).

**Q.** And the AC50 [6]?
**A.** Its AC50 is < 0.26 µM (active).

**Q.** And the AC50 [7]?
**A.** Its AC50 is 0.58 µM (active).

**Q.** What about the AC50 [8] of the same compound?
**A.** The AC50 was 0.348 µM (active).

**Q.** And the AC50 [9]?
**A.** The AC50 was 2.36 µM (active).

**Q.** What about the IC50 (cells) of the same compound?
**A.** Its IC50 is 5.66 µM (active).

**Q.** What does the source list for CC(C)OCC(O)CN1CCN(CCN2C(=O)c3cccc4cccc(c34)C2=O)CC1 (centres undefined)?
**A.** EC50 [10]: > 300 µM (not active); EC50 [11]: > 300 µM (not active); AC50 [12]: 8.86 µM (active); AC50 [13]: 3.93 µM (active)

**Q.** With O=C(c1ccco1)N1CCN(C(=O)C2CCCc3c2[nH]c2ccc(Cl)cc32)CC1 (centres undefined) as the compound, how does the CC50 [3] read?
**A.** Its CC50 is 16.2 µM (active).

**Q.** And the IC50 (cells)?
**A.** The IC50 was 16 µM (active).

**Q.** For Oc1nc2ccccc2n1C1CCN(C(c2cc3ccccc3o2)c2nnnn2Cc2ccccc2)CC1 (centres undefined), which AC50 (Paired box protein Pax-8) is on record?
**A.** The AC50 was 6.31 µM (active).

**Q.** What about the AC50 [1] of the same compound?
**A.** Its AC50 is 9.76 µM (active).

**Q.** What about the AC50 [14] of the same compound?
**A.** The AC50 was 9.97 µM (active).

**Q.** And the AC50 [15]?
**A.** Its AC50 is 24.8 µM (active).

**Q.** What about the AC50 [16] of the same compound?
**A.** Its AC50 is 13.5 µM (active).

**Q.** What about the AC50 [17] of the same compound?
**A.** Its AC50 is 19 µM (active).

**Q.** What about the AC50 [18] of the same compound?
**A.** Its AC50 is 9.44 µM (active).

**Q.** And the AC50 [19]?
**A.** The AC50 was 14.7 µM (active).

**Q.** For O=C(N[C@@H]1CC[C@@H](CCNS(=O)(=O)c2ccccc2Cl)O[C@@H]1CO)c1ccc(F)cc1, which AC50 [1] is on record?
**A.** Its AC50 is 36.1 µM (active).

**Q.** For COc1ccc(-c2cc(C(=O)N/N=C/c3ccc4c(c3)OCO4)c3ccccc3n2)c(OC)c1, which CC50 [3] is on record?
**A.** Its CC50 is 44.4 µM (active).

**Q.** What about the IC50 (cells) of the same compound?
**A.** The IC50 was 27.9 µM (active).
